Experimental data reported in patent publication EP4813403A1, “USE OF GLP-1R/GIPR DOUBLE-TARGET AGONIST IN PREPARING ANIMAL DRUG” (Hangzhou Zhongmeihuadong Pharmaceutical Co., Ltd., priority 2023, dated 2025).

Columns and labels:
db/db mice = test: Pharmacodynamic effects in db/db mice, single subcutaneous administration (blood glucose); assay type: in vivo; conditions: single s.c. 10 nmol/kg; for Hypoglycemic Duration: Group 2, longest time with p<0.05 vs. vehicle
Procedure: In this study, 8-9 week old male db/db mice were used. The db/db mice were placed in an individual ventilated cage (IVC) facility with a controlled temperature (20-26°C) and humidity (40-70%) and a controlled 12h:12 h light-dark cycle. The mice can receive food and water ad libitum. Blood was sampled at the tail tip, and the random base blood glucose was measured by a Roche blood glucose meter. The mice were randomly divided into groups according to the random initial fasting blood glucose and initial body weight (n=6/group), and each group had similar body weight and blood glucose.
After a single subcutaneous administration, the random base blood glucoses were recorded at the set time point (0 to 120 hours, the recording of the random base blood glucose was stopped until there was no difference between the random base blood glucose of the compound and that of the vehicle group), and the daily body weight and food intake were also recorded. The data results were statistically analyzed using GraphPad Prism8, and the statistical differences among the groups were analyzed following a T-Test. Significant differences were identified at p<0.05.
Hypoglycemic Duration: the longest time during which the random base blood glucose of the compound has a significant difference (p<0.05) vs. the vehicle group. Table 13. Hypoglycemic Duration of the Compounds

human GIP Receptor = target: T1, human GIP Receptor (Homo sapiens, UniProt P48546); test: In vitro binding activity to human GIP receptor ([125I]GIP displacement, crude cell membranes); conditions: ratio of the Ki value of the endogenous ligand to the Ki value of the test compound; larger ratio = stronger binding
T1 construct: expressed in transfected cells
T1 sequence (P48546 22-466): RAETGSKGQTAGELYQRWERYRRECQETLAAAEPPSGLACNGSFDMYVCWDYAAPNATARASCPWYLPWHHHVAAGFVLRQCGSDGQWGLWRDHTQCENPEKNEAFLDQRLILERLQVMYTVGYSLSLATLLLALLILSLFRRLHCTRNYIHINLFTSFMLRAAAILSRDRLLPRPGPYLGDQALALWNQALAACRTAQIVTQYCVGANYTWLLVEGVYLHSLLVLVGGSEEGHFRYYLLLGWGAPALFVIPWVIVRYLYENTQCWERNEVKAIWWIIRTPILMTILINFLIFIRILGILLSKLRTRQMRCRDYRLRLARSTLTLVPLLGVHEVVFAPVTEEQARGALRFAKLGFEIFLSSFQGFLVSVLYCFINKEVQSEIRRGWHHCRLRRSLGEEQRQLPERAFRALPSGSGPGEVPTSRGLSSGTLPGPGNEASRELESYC
Procedure: 89 µL of membrane dissolved in binding buffer (50 mM Hepes, pH 7.4, 5 mM MgCl2 , 5 mM EDTA, 0.005% TWEEN, 0.005% HSA) was transferred to a 96-well test plate (5 µg/well). The compound was serially diluted in DMSO, and then, 1 µL of the diluted compound or 100% DMSO was added to the test plate containing the membrane solution. 10 µL of [^125I] […] The test plate was left at room temperature for 90 minutes. The membrane complexes were harvested into a GF/B plate pre-coated with 0.5% PEI by using a Cell Harvester, and washed for 3 times with 500 µL of pre-cooled elution buffer (50 mM Hepes, pH 7.4, 500 mM NaCl) at 4°C. After drying at 37°C for 2 hours, 50 µL of scintillation fluid was added to each well. The plate was read with a MicroBeta2 scintillation counter after sealing and settling for at least 1 hour so as to determine the membrane bound radioligand level.
hGIP and the compound of the present invention were dissolved in DMSO and stored at -80°C. 98 µL of membrane dissolved in binding buffer (50 mM HEPES pH 7.4, 5 mM MgCl2, 1 mM CaCl2, 0.1% BSA, 0.005% Tween-20) was transferred to a 96-well test plate (15 µg/well). The compound was serially diluted in DMSO, and then, 2 µL of the diluted compounds or 100% DMSO was added to the test plate containing the membrane solution. […] The test plate was left at room temperature for 90 minutes. The membrane complexes were harvested into a GF/B plate pre-coated with 0.5% PEI by using a Cell Harvester, and washed for 3 times with 500 µL of pre-cooled elution buffer (50 mM Tris-HCl pH 7.4, 125 mM NaCl) at 4°C. After drying at 37°C for 2 hours, 50 µL of scintillation fluid was added to each well. The plate was read with a MicroBeta2 scintillation counter after sealing and settling for at least 1 hour so as to determine the membrane bound radioligand level.
The IC50 concentration was converted to Ki (Ki was the inhibition constant) using the Cheng-Prusoff equation. Table 1. Receptor Binding Affinity, Ki Ratio

[1] = Pharmacokinetics in C57 mice; conditions: C57, mouse, in vivo
Procedure: After subcutaneous or intravenous administration to C57 mice, plasma was collected and the drug concentration in plasma was determined to illustrate the in vivo pharmacokinetic properties of the compound according to the present invention. […] 20.0 µL of thawed plasma sample was taken. 20 µL of 50% aqueous methanol solution (containing 100 ng mL^-1 Tolbutamide) and 60 µL of acetonitrile were added sequentially to precipitate protein. The mixture was vortexed for 5 minutes, and centrifuged at 4815 rpm for 8 minutes. 50.0 µL of the supernatant was taken, into which 50.0 µL of 0.5% aqueous formic acid solution was added. The mixture was vortexed for 5 minutes. 50 µL of the mixture solution was sampled and injected into the LC-MS/MS to determine the drug concentration in plasma. Based on the drug concentration in plasma of the compounds in C57 mice, the pharmacokinetic parameters were calculated by applying the software Winnolin 8.3 in a non-compartmental model, and the results were shown in Table 7 and Table 8 below. Table 7 Average Pharmacokinetic Parameters after Single Subcutaneous Administration to Mice

SMILES | inhibition of the blood glucose AUC, times of that of Tirzepatide (db/db mice) [times] | Hypoglycemic Duration (db/db mice) [h] | GIPR Ki ratio (human GIP Receptor) | AUC(0-inf) ([1]; iv) [ng·h/mL] | AUC(0-t) ([1]; iv) [ng·h/mL] | C0 ([1]; iv) [ng/mL] | half-life ([1]; iv) [h] | MRT ([1]; iv, MRT(0-t)) [h] | MRT ([1]; iv, MRT(0-∞)) [h] | AUC(0-inf) ([1]; sc) [ng·h/mL] | AUC(0-t) ([1]; sc) [ng·h/mL] | Cmax ([1]; sc) [ng/mL] | Tmax ([1]; sc) [h] | half-life ([1]; sc) [h] | MRT ([1]; sc, MRT(0-t)) [h] | MRT ([1]; sc, MRT(0-∞)) [h]
CC[C@H](C)[C@H](NC(=O)C(C)(C)NC(=O)[C@H](Cc1ccc(O)cc1)NC(=O)[C@H](CC(=O)O)NC(=O)[C@H](CO)NC(=O)[C@@H](NC(=O)C(C)(Cc1ccccc1)NC(=O)[C@@H](NC(=O)CNC(=O)[C@H](CCC(=O)O)NC(=O)C(C)(C)NC(=O)[C@@H](N)Cc1ccc(O)cc1)[C@@H](C)O)[C@@H](C)O)C(=O)NC(C)(C)C(=O)N[C@@H](CC(C)C)C(=O)N[C@@H](CC(=O)O)C(=O)N[C@@H](CCCCN)C(=O)N[C@@H](CCC(N)=O)C(=O)N[C@@H](C)C(=O)N[C@@H](CCC(N)=O)C(=O)N[C@@H](C)C(=O)N[C@@H](CCC(=O)O)C(=O)N[C@@H](Cc1ccccc1)C(=O)N[C@H](C(=O)N[C@@H](CCCCN)C(=O)N[C@@H](Cc1c[nH]c2ccccc12)C(=O)N[C@@H](CC(C)C)C(=O)N[C@@H](CC(C)C)C(=O)N[C@@H](CCCCNC(=O)COCCOCCNC(=O)COCCOCCNC(=O)COCCOCCNC(=O)CC[C@H](NC(=O)CCCCCCCCCCCCCCCCCCCCC(=O)O)C(=O)O)C(=O)NCC(=O)NCC(=O)N1CCC[C@H]1C(=O)N[C@@H](CO)C(=O)N[C@@H](CO)C(=O)NCC(=O)N[C@@H](C)C(=O)N1CCC[C@H]1C(=O)N1CCC[C@H]1C(=O)N1CCC[C@H]1C(=O)N[C@@H](CO)C(=O)N[C@@H](CCCCN)C(N)=O)C(C)C (stereo partly drawn) [Compound P020] | 2.0 | 104 | 0.05 | 17400 | 16300 | 1820 | 16.7 | 16.8 | 21.8 | 21100 | 19000 | 836 | 4.25 | 19.9 | 21.8 | 29.4
CC[C@H](C)[C@H](NC(=O)C(C)(C)NC(=O)[C@H](Cc1ccc(O)cc1)NC(=O)[C@H](CC(=O)O)NC(=O)[C@H](CO)NC(=O)[C@@H](NC(=O)C(C)(Cc1ccccc1)NC(=O)[C@@H](NC(=O)CNC(=O)[C@H](CCC(=O)O)NC(=O)C(C)(C)NC(=O)[C@@H](N)Cc1ccc(O)cc1)[C@@H](C)O)[C@@H](C)O)C(=O)NC(C)(C)C(=O)N[C@@H](CC(C)C)C(=O)N[C@@H](CC(=O)O)C(=O)N[C@@H](CCCCN)C(=O)N[C@@H](CCC(N)=O)C(=O)N[C@@H](C)C(=O)N[C@@H](CCC(N)=O)C(=O)N[C@@H](C)C(=O)N[C@@H](CCC(=O)O)C(=O)N[C@@H](Cc1ccccc1)C(=O)N[C@H](C(=O)N[C@@H](CCCCN)C(=O)N[C@@H](Cc1c[nH]c2ccccc12)C(=O)N[C@@H](CC(C)C)C(=O)N[C@@H](CC(C)C)C(=O)N[C@@H](CCCCNC(=O)COCCOCCNC(=O)COCCOCCNC(=O)CC[C@H](NC(=O)CCCCCCCCCCCCCCCCCCCCC(=O)O)C(=O)O)C(=O)NCC(=O)NCC(=O)N1CCC[C@H]1C(=O)N[C@@H](CO)C(=O)N[C@@H](CO)C(=O)NCC(=O)N[C@@H](C)C(=O)N1CCC[C@H]1C(=O)N1CCC[C@H]1C(=O)N1CCC[C@H]1C(=O)N[C@@H](CO)C(=O)N[C@@H](CCCCN)C(N)=O)C(C)C (stereo partly drawn) [Compound P017] |  | 72 | 0.04 |  |  |  |  |  |  |  |  |  |  |  |  | 
